Data: patent publication US20170210751A1, “PRMT5 INHIBITORS AND USES THEREOF” (Epizyme, Inc., priority 2014, published 2017)
pEC50, pIC50: −log10 of the molar value.

What was measured:
Z-138 cell line = assay: Z-138 Proliferation Assay (Cell Titer Glo); format: cell-based; settings: Homo sapiens, 120 h; Z-138 cells, 5 days incubation, ATP (Cell Titer Glo)
From the text: Z-138 Proliferation Assay
Z-138 suspension cells were purchased from ATCC (American Type Culture Collection, Manassas, Va.). RPMI/Glutamax medium, penicillin-streptomycin, heat inactivated fetal bovine serum were purchased from Life Technologies, Grand Island, N.Y., USA. V-bottom polypropylene 384-well plates were purchased from Greiner Bio-One, Monroe, N.C., USA. Cell culture 384-well white opaque plates were purchased from Perkin Elmer, Waltham, Mass., USA. Cell-Titer Glo® was purchased from Promega Corporation, Madison, Wis., USA. SpectraMax M5 plate reader was purchased from Molecular Devices LLC, Sunnyvale, Calif., USA.
Z-138 suspension cells were maintained in growth medium (RPMI 1640 supplemented with 10% v/v heat inactivated fetal bovine serum and cultured at 37° C. under 5% CO2. Under assay conditions, cells were incubated in assay medium (RPMI 1640 supplemented with 10% v/v heat inactivated fetal bovine serum and 100 units/mL penicillin-streptomycin) at 37° C. under 5% CO2.
For the assessment of the effect of compounds on the proliferation of the Z-138 cell line, exponentially growing cells were plated in 384-well white opaque plates at a density of 10,000 cells/ml in a final volume of 50 μl of assay medium. A compound source plate was prepared by performing triplicate nine-point 3-fold serial dilutions in DMSO, beginning at 10 mM (final top concentration of compound in the assay was 20 μM and the DMSO was 0.2%). A 100 nL aliquot from the compound stock plate was added to its respective well in the cell plate. […] After addition of compounds, assay plates were incubated for 5 days at 37° C., 5% CO2, relative humidity >90%.
Cell viability was measured by quantitation of ATP present in the cell cultures, adding 35 μl of Cell Titer Glo® reagent to the cell plates. Luminescence was read in the SpectraMax M5 microplate reader. The concentration of compound inhibiting cell viability by 50% was determined using a 4-parametric fit of the normalized dose response curves.

PRMT5/MEP50 = molecular target: T1, PRMT5/MEP50 (Homo sapiens, UniProt O14744); assay: PRMT5 Biochemical Assay (PRMT5/MEP50 enzyme assay on peptide substrate, 3H-SAM Flashplate); settings: PRMT5/MEP50 4 nM, 3H-SAM 75 nM, peptide 40 nM, 30 min preincubation at 25 degrees Celsius
T1 construct: Flag-PRMT5; made in house; host or cells: Spodoptera frugiperda (SF9) insect cells, baculovirus (pDEST8)
From the text: S-adenosylmethionine (SAM), S-adenosylhomocysteine (SAH), bicine, KCl, Tween20, dimethylsulfoxide (DMSO), bovine skin gelatin (BSG), and Tris(2-carboxyethyl)phosphine hydrochloride solution (TCEP) were purchased from Sigma-Aldrich at the highest level of purity possible. ^3H-SAM was purchase from American Radiolabeled Chemicals with a specific activity of 80 Ci/mmol. 384-well streptavidin Flashplates were purchased from PerkinElmer.
Peptide representative of human histone H4 residues 1-15 was synthesized with a C-terminal linker-affinity tag motif and a C-terminal amide cap by 21st Century Biochemicals. The peptide was high high-performance liquid chromatography (HPLC) purified to greater than 95% purity and confirmed by liquid chromatography mass spectrometry (LC-MS). The sequence was Ac-[…][K-Biot]-amide (SEQ ID NO.:3).
Full-length human PRMT5 (NM_006109.3) transcript variant 1 clone was amplified from a fetal brain cDNA library, incorporating flanking 5′ sequence encoding a FLAG tag ([…]) (SEQ ID NO.:4) fused directly to Ala 2 of PRMT5. Full-length human MEP50 (NM_024102) clone was amplified from a human testis cDNA library incorporating a 5′ sequence encoding a 6-histidine tag (MHHHHHH) (SEQ ID NO.:5) fused directly to Arg 2 of MEP50. The amplified genes were sublconed into pENTR/D/TEV (Life Technologies) and subsequently transferred by Gateway™ attL×attR recombination to pDEST8 baculvirus expression vector (Life Technologies).
Recombinant baculovirus and Baculovirus-Infected Insect Cells (BIIC) were generated according to Bac-to-Bac kit instructions (Life Technologies) and Wasilko, 2006, respectively. Protein over-expression was accomplished by infecting exponentially growing Spodoptera frugiperda (SF9) cell culture at 1.2×10^6 cell/ml with a 5000 fold dilution of BIIC stock. Infections were carried out at 27° C. for 72 hours, harvested by centrifugation, and stored at −80° C. for purification.
Flag-PRMT5/6His-MeP50 was eluted with 300 mM Imidazole in the same buffer. The purity of recovered protein was 87%. Reference: Wasilko, D. J. and S. E. Lee: “TIPS: titerless infected-cells preservation and scale-up” Bioprocess J., 5 (2006), pp. 29-32.
General Procedure for PRMT5/MEP50 Enzyme Assays on Peptide Substrates.
The assays were all performed in a buffer consisting of 20 mM Bicine (pH=7.6), 1 mM TCEP, 0.005% BSG, and 0.002% Tween20, prepared on the day of use. Compounds in 100% DMSO (1 ul) were spotted into a polypropylene 384-well V-bottom plates (Greiner) using a Platemate Plus outfitted with a 384-channel head (Thermo Scientific). DMSO (1 ul) was added to Columns 11, 12, 23, 24, rows A-H for the maximum signal control and 1 ul of SAH, a known product and inhibitor of PRMT5/MEP50, was added to columns 11, 12, 23, 24, rows I-P for the minimum signal control. A cocktail (40 ul) containing the PRMT5/MEP50 enzyme and the peptide was added by Multidrop Combi (Thermo-Fisher). The compounds were allowed to incubate with PRMT5/MEP50 for 30 min at 25 degrees Celsius, then a cocktail (10 ul) containing ^3H-SAM was added to initiate the reaction (final volume=51 ul). The final concentrations of the components were as follows: PRMT5/MEP50 was 4 nM, ^3H-SAM was 75 nM, peptide was 40 nM, SAH in the minimum signal control wells was 100 uM, and the DMSO concentration was 1%. The assays were stopped by the addition of non-radioactive SAM (10 ul) to a final concentration of 600 uM, which dilutes the ^3H-SAM to a level where its incorporation into the peptide substrate is no longer detectable. 50 ul of the reaction in the 384-well polypropylene plate was then transferred to a 384-well Flashplate and the biotinylated peptides were allowed to bind to the streptavidin surface for at least 1 hour before being washed three times with 0.1% Tween20 in a Biotek ELx405 plate washer. […]

T1 sequence (O14744 with tags, fused parts or gaps): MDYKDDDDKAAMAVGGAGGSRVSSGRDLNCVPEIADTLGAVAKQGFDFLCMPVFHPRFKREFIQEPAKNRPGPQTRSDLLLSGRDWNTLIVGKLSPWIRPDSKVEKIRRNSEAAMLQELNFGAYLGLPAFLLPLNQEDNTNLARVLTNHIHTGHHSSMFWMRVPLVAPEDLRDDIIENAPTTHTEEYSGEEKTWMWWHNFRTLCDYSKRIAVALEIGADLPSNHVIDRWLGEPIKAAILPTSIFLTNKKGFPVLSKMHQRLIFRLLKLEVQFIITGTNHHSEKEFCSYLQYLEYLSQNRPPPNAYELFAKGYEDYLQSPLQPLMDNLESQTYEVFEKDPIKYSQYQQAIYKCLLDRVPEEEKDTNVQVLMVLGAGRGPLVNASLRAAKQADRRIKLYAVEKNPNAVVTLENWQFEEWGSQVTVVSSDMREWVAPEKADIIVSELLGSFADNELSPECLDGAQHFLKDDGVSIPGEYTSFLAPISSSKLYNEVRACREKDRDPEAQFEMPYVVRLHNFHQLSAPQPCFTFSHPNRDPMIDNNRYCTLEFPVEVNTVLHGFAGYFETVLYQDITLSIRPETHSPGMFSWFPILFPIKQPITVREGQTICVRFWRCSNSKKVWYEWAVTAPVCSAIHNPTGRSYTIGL
T1 sequence (Q9BQA1 with tags, fused parts or gaps partner limits assumed): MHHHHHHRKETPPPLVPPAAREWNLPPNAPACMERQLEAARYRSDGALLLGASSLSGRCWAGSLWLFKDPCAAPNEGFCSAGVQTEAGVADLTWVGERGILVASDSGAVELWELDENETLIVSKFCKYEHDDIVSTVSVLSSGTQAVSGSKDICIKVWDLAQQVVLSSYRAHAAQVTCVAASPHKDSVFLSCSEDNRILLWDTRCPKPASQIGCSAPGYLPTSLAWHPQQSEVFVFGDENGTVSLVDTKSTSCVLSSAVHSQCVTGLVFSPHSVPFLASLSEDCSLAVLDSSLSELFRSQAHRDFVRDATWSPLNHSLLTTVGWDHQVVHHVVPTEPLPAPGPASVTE

| pIC50 (PRMT5/MEP50) | Compound | pEC50 (Z-138 cell line) |
| --- | --- | --- |
| < 5.00 | Cn1ncc2c1CCCN2C[C@@H](O)CNC(=O)c1cc(NC2COC2)ncn1 [Compound 3-40] | < 5.30 |
| < 5.00 | Cn1cnc2c1CCN(C[C@@H](O)CNC(=O)c1cc(NC3COC3)ncn1)C2 [Compound 3-28] | < 5.30 |
| < 5.00 | CC(=O)N1CCC(Nc2cc(C(=O)NC[C@H](O)CN3CCCc4c3cnn4C)ncn2)CC1 [Compound 3-58] | < 5.30 |
| 5.00 to 6.00 | CC(=O)N1CCC(Nc2cc(C(=O)NC[C@H](O)CN3CCc4[nH]ncc4C3)ccn2)CC1 [Compound 3-21] | < 5.30 |
| < 5.00 | CC(=O)N1CCC(Nc2cc(C(=O)NC[C@H](O)CN3CCc4ncn(C)c4C3)ccn2)CC1 [Compound 3-24, (S)-2-((1-acetylpiperidin-4-yl)amino)-N-(2-hydroxy-3-(3-methyl-6,7-dihydro-3H-imidazo[4,5-c]pyridin-5(4H)-yl)propyl)isonicotinamide] | < 5.30 |
| < 5.00 | CC(=O)N1CCC(Nc2cc(C(=O)NC[C@H](O)CN3CCc4[nH]nc(-c5ccccc5)c4C3)ncn2)CC1 [Compound 3-12, (S)-6-((1-acetylpiperidin-4-yl)amino)-N-(2-hydroxy-3-(3-phenyl-6,7-dihydro-1H-pyrazolo[4,3-c]pyridin-5(4H)-yl)propyl)pyrimidine-4-carboxamide] | < 5.30 |
| < 5.00 | CC(=O)N1CCC(Nc2cc(C(=O)NC[C@H](O)CN3CCc4[nH]cnc4C3)ncn2)CC1 [Compound 3-34, (S)-6-((1-acetylpiperidin-4-yl)amino)-N-(3-(6,7-dihydro-1H-imidazo[4,5-c]pyridin-5(4H)-yl)-2-hydroxypropyl)pyrimidine-4-carboxamide] | < 5.30 |
| < 5.00 | Cn1cc2c(n1)CCN(C[C@@H](O)CNC(=O)c1cc(NC3COC3)ncn1)C2 [Compound 3-27] | < 5.30 |

More lines, now with the values behind:

| Compound | pIC50 (PRMT5/MEP50) | pEC50 (Z-138 cell line) |
| --- | --- | --- |
| Nc1nc2c(s1)CCN(C[C@@H](O)CNC(=O)c1cc(NC3COC3)ncn1)C2 [Compound 1-20, (S)—N-(3-(2-amino-6,7-dihydrothiazolo[4,5-c]pyridin-5(4H)-yl)-2-hydroxypropyl)-6-(oxetan-3-ylamino)pyrimidine-4-carboxamide] | < 5.00 | < 5.30 |
| CC(=O)N1CCC(Nc2cc(C(=O)NC[C@H](O)CN3CCc4scnc4C3)ncn2)CC1 [Compound 1-32] | 5.00 to 6.00 | < 5.30 |
| CC(=O)N1CC(Nc2cc(C(=O)NC[C@H](O)CN3CCc4cccnc4C3)ncn2)C1 [Compound 2-13] | 6.00 to 7.00 | 5.00 to 6.00 |
| O=C(NC[C@H](O)CN1CCc2ccncc2C1)c1cc(NC2COC2)ncn1 [Compound 2-24] | 5.00 to 6.00 | < 5.30 |
| O=C(COc1cccc2cccnc12)NCC(O)CN1CCc2cccnc2C1 (stereo not shown) [Compound 2-5, N-[2-hydroxy-3-(5,6,7,8-tetrahydro-1,7-naphthyridin-7-yl)propyl]-2-(quinolin-8-yloxy)acetamide] | 5.00 to 6.00 | < 5.30 |
| CC(=O)N1CC(Nc2cc(C(=O)NC[C@H](O)CN3CCc4ncsc4C3)ncn2)C1 [Compound 1-17, (S)-6-((1-acetylazetidin-3-yl)amino)-N-(3-(6,7-dihydrothiazolo[5,4-c]pyridin-5(4H)-yl)-2-hydroxypropyl)pyrimidine-4-carboxamide] | < 5.00 | < 5.30 |
| CC(=O)N1CCC(Nc2cc(C(=O)NC[C@H](O)CN3CCc4scc(C)c4C3)ncn2)CC1 [Compound 1-13, (S)-6-((1-acetylpiperidin-4-yl)amino)-N-(2-hydroxy-3-(3-methyl-6,7-dihydrothieno[3,2-c]pyridin-5(4H)-yl)propyl)pyrimidine-4-carboxamide] | > 7.00 | 6.00 to 7.00 |
| Cc1nc2c(s1)CN(C[C@@H](O)CNC(=O)c1cc(NC3COC3)ncn1)CC2 [Compound 1-8, (S)—N-(2-hydroxy-3-(2-methyl-6,7-dihydrothiazolo[5,4-c]pyridin-5(4H)-yl)propyl)-6-(oxetan-3-ylamino)pyrimidine-4-carboxamide] | < 5.00 | < 5.30 |
| O=C(NC[C@H](O)CN1CCc2sccc2C1)c1cc(NC2COC2)ncn1 [Compound 1-1, (S)—N-(3-(6,7-dihydrothieno[3,2-c]pyridin-5(4H)-yl)-2-hydroxypropyl)-6-(oxetan-3-ylamino)pyrimidine-4-carboxamide] | > 7.00 | 5.00 to 6.00 |
| O=C(COc1cccc2cccnc12)NCC(O)CN1CCc2sccc2C1 (stereo not shown) [Compound 1-4, N-(2-hydroxy-3-{4H,5H,6H,7H-thieno[3,2-c]pyridin-5-yl}propyl)-2-(quinolin-8-yloxy)acetamide] | > 7.00 | 5.00 to 6.00 |
| CC(=O)N1CCC(Nc2cc(C(=O)NC[C@H](O)CN3CCc4sc(C)nc4C3)ccn2)CC1 [Compound 1-33] | 5.00 to 6.00 | < 5.30 |
| CC(=O)N1CCC(Nc2cc(C(=O)NC[C@H](O)CN3CCc4cnccc4C3)ncn2)CC1 [Compound 2-17, (S)-6-((1-acetylpiperidin-4-yl)amino)-N-(3-(3,4-dihydro-2,6-naphthyridin-2(1H)-yl)-2-hydroxypropyl)pyrimidine-4-carboxamide] | 6.00 to 7.00 | < 5.30 |
| O=C(NC[C@H](O)CN1CCc2ncsc2C1)c1cc(NC2COC2)ncn1 [Compound 1-16, (S)—N-(3-(6,7-dihydrothiazolo[5,4-c]pyridin-5(4H)-yl)-2-hydroxypropyl)-6-(oxetan-3-ylamino)pyrimidine-4-carboxamide] | < 5.00 | < 5.30 |
| CC(=O)N1CCC(Nc2cc(C(=O)NC[C@H](O)CN3CCc4scnc4C3)ccn2)CC1 [Compound 1-30] | 5.00 to 6.00 | < 5.30 |
| O=C(COc1cccc2cccnc12)NCC(O)CN1CCc2ncccc2C1 (stereo not shown) [Compound 2-6, N-[2-hydroxy-3-(5,6,7,8-tetrahydro-1,6-naphthyridin-6-yl)propyl]-2-(quinolin-8-yloxy)acetamide] | 5.00 to 6.00 | < 5.30 |
